Measurements taken from patent US20250353891A1 (MEDIMMUNE LIMITED, priority 2022, published 2025).
pEC50: −log10 of the molar value. Starred links: 1 amine or outer side, 2 acyl side, 3 side chain; linkers in the order of their positions; H or OH if unused. Non-standard residues stand in square brackets, D forms with d. Residues, ends and D or L forms follow the SMILES beside them. Groups on a side chain read outwards from the residue. *: point of attachment. C18 diacid = O=C(O)CCCCCCCCCCCCCCCCC(=O)*; γGlu = O=C(O)[C@H](CCC(=O)[*:2])N[*:1]; αMeF = C[C@](N)(Cc1ccccc1)C(=O)O; AEEA = NCCOCCOCC(=O)O; Aib = CC(C)(N)C(=O)O

Experiments:
[1] = target: human glucagon receptor (hGCGR) (Homo sapiens, UniProt P47871); test: cAMP production (HTRF) in CHO cells expressing hGCGR; format: cell-based; set-up: expressed in transfected cells; conditions: Table 6, peptides modified at position 17; cAMP in CHO hGCGR cells; geometric mean; read-out: hGluc-R EC50
human glucagon receptor (hGCGR), sequence (P47871 26-477): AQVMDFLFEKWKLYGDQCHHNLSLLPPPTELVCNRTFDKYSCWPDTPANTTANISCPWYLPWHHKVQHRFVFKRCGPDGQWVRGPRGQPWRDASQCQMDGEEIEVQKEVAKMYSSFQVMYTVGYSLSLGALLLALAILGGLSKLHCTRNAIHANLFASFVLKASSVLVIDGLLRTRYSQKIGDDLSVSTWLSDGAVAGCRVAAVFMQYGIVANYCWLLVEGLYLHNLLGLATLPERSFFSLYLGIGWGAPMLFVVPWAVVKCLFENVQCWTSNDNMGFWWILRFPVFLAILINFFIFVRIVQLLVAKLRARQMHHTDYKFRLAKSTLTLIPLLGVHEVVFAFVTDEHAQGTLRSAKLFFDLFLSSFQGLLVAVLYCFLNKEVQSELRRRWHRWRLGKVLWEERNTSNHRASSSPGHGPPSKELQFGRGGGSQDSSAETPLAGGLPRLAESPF
Outline: (§1)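 Read-out: HTRF cAMP (anti-cAMP cryptate donor, cAMP-d2 acceptor in conjugate/lysis buffer), converted to % Delta F and fitted by 4-parameter logistic for EC50. Cell densities were 1×10^5 cells/mL (hGLP-1R) or 2×10^5 cells/mL (hGCGR). Stimulation lasted 30 min at room temperature.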

[2] = target: human GLP-1 receptor (hGLP-1R) (Homo sapiens, UniProt P43220); test: cAMP production (HTRF) in CHO cells expressing hGLP-1R; format: cell-based; set-up: expressed in transfected cells; conditions: for pEC50: Table 6, peptides modified at position 17, cAMP in CHO hGLP-1R cells, geometric mean, read-out: hGLP-1R EC50; for % Relative Potency Ratio: Table 6, % GLP-1R activity relative to GLP-1 / % GlucR activity relative to glucagon
human GLP-1 receptor (hGLP-1R), sequence (P43220 24-463): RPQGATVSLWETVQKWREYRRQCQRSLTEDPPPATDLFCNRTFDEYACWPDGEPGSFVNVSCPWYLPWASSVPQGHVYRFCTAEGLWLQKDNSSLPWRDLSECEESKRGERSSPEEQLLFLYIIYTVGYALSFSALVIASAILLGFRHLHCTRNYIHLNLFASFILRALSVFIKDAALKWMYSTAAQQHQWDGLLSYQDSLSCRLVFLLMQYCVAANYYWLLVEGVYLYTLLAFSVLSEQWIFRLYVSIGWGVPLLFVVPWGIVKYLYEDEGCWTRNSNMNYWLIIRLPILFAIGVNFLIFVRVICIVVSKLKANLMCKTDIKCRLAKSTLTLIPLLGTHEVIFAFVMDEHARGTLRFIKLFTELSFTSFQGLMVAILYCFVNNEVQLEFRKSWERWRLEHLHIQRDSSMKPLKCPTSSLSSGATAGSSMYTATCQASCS
Outline: as §1

Row | SMILES | pEC50 [1] | pEC50 [2] | % Relative Potency Ratio [2]
1 | CC(C)C[C@H](NC(=O)[C@H](CC(C)C)NC(=O)[C@H](Cc1c[nH]c2ccccc12)NC(=O)[C@H](CCCNC(=N)N)NC(=O)[C@@H](NC(=O)[C@H](Cc1ccccc1)NC(=O)[C@H](CC(=O)O)NC(=O)[C@H](CCC(N)=O)NC(=O)[C@H](C)NC(=O)[C@H](CCCNC(=N)N)NC(=O)[C@H](CCCCNC(=O)COCCOCCNC(=O)COCCOCCNC(=O)CC[C@H](NC(=O)CCCCCCCCCCCCCCCCC(=O)O)C(=O)O)NC(=O)[C@H](CO)NC(=O)[C@H](CC(=O)O)NC(=O)[C@H](CC(C)C)NC(=O)[C@](C)(Cc1ccccc1)NC(=O)[C@H](CCCCN)NC(=O)[C@H](CO)NC(=O)[C@@H](NC(=O)[C@H](CC(=O)O)NC(=O)[C@H](CO)NC(=O)[C@@H](NC(=O)[C@H](Cc1ccccc1)NC(=O)[C@@H](NC(=O)CNC(=O)[C@H](CCC(N)=O)NC(=O)C(C)(C)NC(=O)[C@@H](N)Cc1c[nH]cn1)[C@@H](C)O)[C@@H](C)O)C(C)C)C(C)C)C(=O)N[C@@H](C)C(=O)NC(C)(C)C(=O)NCC(=O)O [Peptide 180] (H-H[Aib]QGTFTSDVSK[αMeF]LDSK([AEEA-AEEA-γGlu-C18 diacid])RAQDFVRWLLA[Aib]G-OH; N-terminus assumed) | 10.14 | 10.61 | 5.8
2 | CC(C)C[C@H](NC(=O)[C@H](Cc1c[nH]c2ccccc12)NC(=O)[C@H](CCCNC(=N)N)NC(=O)[C@@H](NC(=O)[C@H](Cc1ccccc1)NC(=O)[C@H](CC(=O)O)NC(=O)[C@H](CCC(N)=O)NC(=O)[C@H](C)NC(=O)[C@H](CCCNC(=N)N)NC(=O)[C@H](CCCCNC(=O)COCCOCCNC(=O)COCCOCCNC(=O)CCCCCCCCCCCCCCCCC(=O)O)NC(=O)[C@H](CO)NC(=O)[C@H](CC(=O)O)NC(=O)[C@H](CC(C)C)NC(=O)[C@](C)(Cc1ccccc1)NC(=O)[C@H](CCCCN)NC(=O)[C@H](CO)NC(=O)[C@@H](NC(=O)[C@H](CC(=O)O)NC(=O)[C@H](CO)NC(=O)[C@@H](NC(=O)[C@H](Cc1ccccc1)NC(=O)[C@@H](NC(=O)CNC(=O)[C@H](CCC(N)=O)NC(=O)C(C)(C)NC(=O)[C@@H](N)Cc1c[nH]cn1)[C@@H](C)O)[C@@H](C)O)C(C)C)C(C)C)C(=O)N[C@@H](CC(C)C)C(=O)N[C@@H](CCC(=O)O)C(=O)NC(C)(C)C(=O)NCC(=O)O [Peptide 181] (H-H[Aib]QGTFTSDVSK[αMeF]LDSK([AEEA-AEEA-C18 diacid])RAQDFVRWLLE[Aib]G-OH; N-terminus assumed) | 10.48 | 10.25 | 1.2
3 | CC(C)C[C@H](NC(=O)[C@H](Cc1c[nH]c2ccccc12)NC(=O)[C@H](CCCNC(=N)N)NC(=O)[C@@H](NC(=O)[C@H](Cc1ccccc1)NC(=O)[C@H](CC(=O)O)NC(=O)[C@H](CCC(N)=O)NC(=O)[C@H](C)NC(=O)[C@H](CCCNC(=N)N)NC(=O)[C@H](CCCCNC(=O)COCCOCCNC(=O)COCCOCCNC(=O)CC[C@H](NC(=O)CCCCCCCCCCCCCCCCC(=O)O)C(=O)O)NC(=O)[C@H](CCCCN)NC(=O)[C@H](CC(=O)O)NC(=O)[C@H](CC(C)C)NC(=O)[C@](C)(Cc1ccccc1)NC(=O)[C@H](CCCCN)NC(=O)[C@H](CO)NC(=O)[C@@H](NC(=O)[C@H](CC(=O)O)NC(=O)[C@H](CO)NC(=O)[C@@H](NC(=O)[C@H](Cc1ccccc1)NC(=O)[C@@H](NC(=O)CNC(=O)[C@H](CCC(N)=O)NC(=O)C(C)(C)NC(=O)[C@@H](N)Cc1c[nH]cn1)[C@@H](C)O)[C@@H](C)O)C(C)C)C(C)C)C(=O)N[C@@H](CC(C)C)C(=O)N[C@@H](CCC(=O)O)C(=O)NC(C)(C)C(=O)NCC(=O)O [Peptide 182] (H-H[Aib]QGTFTSDVSK[αMeF]LDKK([AEEA-AEEA-γGlu-C18 diacid])RAQDFVRWLLE[Aib]G-OH) | 10.65 | 10.54 | 1.5
4 | CC(C)C[C@H](NC(=O)[C@H](Cc1c[nH]c2ccccc12)NC(=O)[C@H](CCCNC(=N)N)NC(=O)[C@@H](NC(=O)[C@H](Cc1ccccc1)NC(=O)[C@H](CC(=O)O)NC(=O)[C@H](CCC(N)=O)NC(=O)[C@H](C)NC(=O)[C@H](CCCNC(=N)N)NC(=O)[C@H](CCCCNC(=O)COCCOCCNC(=O)COCCOCCNC(=O)CC[C@H](NC(=O)CCCCCCCCCCCCCCCCC(=O)O)C(=O)O)NC(=O)[C@H](CO)NC(=O)[C@H](CC(=O)O)NC(=O)[C@H](CC(C)C)NC(=O)[C@](C)(Cc1ccccc1)NC(=O)[C@H](CCCCN)NC(=O)[C@H](CO)NC(=O)[C@@H](NC(=O)[C@H](CC(=O)O)NC(=O)[C@H](CO)NC(=O)[C@@H](NC(=O)[C@H](Cc1ccccc1)NC(=O)[C@@H](NC(=O)CNC(=O)[C@H](CCC(N)=O)NC(=O)C(C)(C)NC(=O)[C@@H](N)Cc1c[nH]cn1)[C@@H](C)O)[C@@H](C)O)C(C)C)C(C)C)C(=O)N[C@@H](CC(C)C)C(=O)N[C@@H](CCC(=O)O)C(=O)NC(C)(C)C(=O)N[C@@H](CCCCN)C(=O)O [Peptide 183] | 10.09 | 10.62 | 6.8
5 | CC(C)C[C@H](NC(=O)[C@H](CC(C)C)NC(=O)[C@H](Cc1c[nH]c2ccccc12)NC(=O)[C@H](CCCNC(=N)N)NC(=O)[C@@H](NC(=O)[C@H](Cc1ccccc1)NC(=O)[C@H](CC(=O)O)NC(=O)[C@H](CCC(N)=O)NC(=O)[C@H](C)NC(=O)[C@H](CCCNC(=N)N)NC(=O)[C@H](CCCCNC(=O)COCCOCCNC(=O)COCCOCCNC(=O)CCCCCCCCCCCCCCCCC(=O)O)NC(=O)[C@H](CCCCN)NC(=O)[C@H](CC(=O)O)NC(=O)[C@H](CC(C)C)NC(=O)[C@](C)(Cc1ccccc1)NC(=O)[C@H](CCCCN)NC(=O)[C@H](CO)NC(=O)[C@@H](NC(=O)[C@H](CC(=O)O)NC(=O)[C@H](CO)NC(=O)[C@@H](NC(=O)[C@H](Cc1ccccc1)NC(=O)[C@@H](NC(=O)CNC(=O)[C@H](CCC(N)=O)NC(=O)C(C)(C)NC(=O)[C@@H](N)Cc1c[nH]cn1)[C@@H](C)O)[C@@H](C)O)C(C)C)C(C)C)C(=O)N[C@@H](C)C(=O)NC(C)(C)C(=O)N[C@@H](CCCCN)C(=O)O [Peptide 184] (H-H[Aib]QGTFTSDVSK[αMeF]LDKK([AEEA-AEEA-C18 diacid])RAQDFVRWLLA[Aib]K-OH; N-terminus assumed) | 10.53 | 10.66 | 2.7
6 | CC(C)C[C@H](NC(=O)[C@H](Cc1c[nH]c2ccccc12)NC(=O)[C@H](CCCNC(=N)N)NC(=O)[C@@H](NC(=O)[C@H](Cc1ccccc1)NC(=O)[C@H](CC(=O)O)NC(=O)[C@H](CCC(N)=O)NC(=O)[C@H](C)NC(=O)[C@H](CCCNC(=N)N)NC(=O)[C@H](CCCCNC(=O)COCCOCCNC(=O)COCCOCCNC(=O)CC[C@H](NC(=O)CCCCCCCCCCCCCCCCC(=O)O)C(=O)O)NC(=O)[C@@H](NC(=O)[C@H](CC(=O)O)NC(=O)[C@H](CC(C)C)NC(=O)[C@](C)(Cc1ccccc1)NC(=O)[C@H](CCCCN)NC(=O)[C@H](CO)NC(=O)[C@@H](NC(=O)[C@H](CC(=O)O)NC(=O)[C@H](CO)NC(=O)[C@@H](NC(=O)[C@H](Cc1ccccc1)NC(=O)[C@@H](NC(=O)CNC(=O)[C@H](CCC(N)=O)NC(=O)C(C)(C)NC(=O)[C@@H](N)Cc1c[nH]cn1)[C@@H](C)O)[C@@H](C)O)C(C)C)[C@@H](C)O)C(C)C)C(=O)N[C@@H](CC(C)C)C(=O)N[C@@H](CCC(=O)O)C(=O)NC(C)(C)C(=O)NCC(N)=O [Peptide 185] (H-H[Aib]QGTFTSDVSK[αMeF]LDTK([AEEA-AEEA-γGlu-C18 diacid])RAQDFVRWLLE[Aib]G-NH2; N-terminus assumed) | 9.64 | 10.36 | 10.3
7 | CC(C)C[C@H](NC(=O)[C@H](CC(C)C)NC(=O)[C@H](Cc1c[nH]c2ccccc12)NC(=O)[C@H](CCCNC(=N)N)NC(=O)[C@@H](NC(=O)[C@H](Cc1ccccc1)NC(=O)[C@H](CC(=O)O)NC(=O)[C@H](CCC(N)=O)NC(=O)[C@H](C)NC(=O)[C@H](CCCNC(=N)N)NC(=O)[C@H](CCCCNC(=O)COCCOCCNC(=O)COCCOCCNC(=O)CC[C@H](NC(=O)CCCCCCCCCCCCCCCCC(=O)O)C(=O)O)NC(=O)[C@@H](NC(=O)[C@H](CC(=O)O)NC(=O)[C@H](CC(C)C)NC(=O)[C@](C)(Cc1ccccc1)NC(=O)[C@H](CCCCN)NC(=O)[C@H](CO)NC(=O)[C@@H](NC(=O)[C@H](CC(=O)O)NC(=O)[C@H](CO)NC(=O)[C@@H](NC(=O)[C@H](Cc1ccccc1)NC(=O)[C@@H](NC(=O)CNC(=O)[C@H](CCC(N)=O)NC(=O)C(C)(C)NC(=O)[C@@H](N)Cc1c[nH]cn1)[C@@H](C)O)[C@@H](C)O)C(C)C)[C@@H](C)O)C(C)C)C(=O)N[C@@H](CCC(=O)O)C(=O)N[C@@H](C)C(=O)NCC(=O)O [Peptide 186] (H-H[Aib]QGTFTSDVSK[αMeF]LDTK([AEEA-AEEA-γGlu-C18 diacid])RAQDFVRWLLEAG-OH; N-terminus assumed) | 10.00 | 10.35 | 4.4
8 | CC(C)C[C@H](NC(=O)[C@H](Cc1c[nH]c2ccccc12)NC(=O)[C@H](CCCNC(=N)N)NC(=O)[C@@H](NC(=O)[C@H](Cc1ccccc1)NC(=O)[C@H](CC(=O)O)NC(=O)[C@H](CCCNC(=N)N)NC(=O)[C@H](C)NC(=O)[C@H](CCCNC(=N)N)NC(=O)[C@H](CCCCNC(=O)COCCOCCNC(=O)COCCOCCNC(=O)CC[C@H](NC(=O)CCCCCCCCCCCCCCCCC(=O)O)C(=O)O)NC(=O)[C@@H](NC(=O)[C@H](CC(=O)O)NC(=O)[C@H](CC(C)C)NC(=O)[C@](C)(Cc1ccccc1)NC(=O)[C@H](CCCCN)NC(=O)[C@H](CO)NC(=O)[C@@H](NC(=O)[C@H](CC(=O)O)NC(=O)[C@H](CO)NC(=O)[C@@H](NC(=O)[C@H](Cc1ccccc1)NC(=O)[C@@H](NC(=O)CNC(=O)[C@H](CCC(N)=O)NC(=O)C(C)(C)NC(=O)[C@@H](N)Cc1c[nH]cn1)[C@@H](C)O)[C@@H](C)O)C(C)C)[C@@H](C)O)C(C)C)C(=O)N[C@@H](CC(C)C)C(=O)N[C@@H](CCC(=O)O)C(=O)NC(C)(C)C(=O)NCC(=O)O [Peptide 189] (H-H[Aib]QGTFTSDVSK[αMeF]LDTK([AEEA-AEEA-γGlu-C18 diacid])RARDFVRWLLE[Aib]G-OH; N-terminus assumed) | 10.35 | 10.95 | 7.7
